From patent publication US6653354B2, “NMDA antagonist comprising xenon” (priority 1999, dated 2003)

Legend:
[1] = biological target: T1, GABAA receptors (Bos taurus, UniProt P08219+P08220+P22300); test: Currents activated by GABA in voltage-clamped PA3 cells stably expressing defined GABA subunits; type: cell-based; settings: 100% xenon
T1 construct: expressed in transfected cells
T1 sequence (P08219 28-456): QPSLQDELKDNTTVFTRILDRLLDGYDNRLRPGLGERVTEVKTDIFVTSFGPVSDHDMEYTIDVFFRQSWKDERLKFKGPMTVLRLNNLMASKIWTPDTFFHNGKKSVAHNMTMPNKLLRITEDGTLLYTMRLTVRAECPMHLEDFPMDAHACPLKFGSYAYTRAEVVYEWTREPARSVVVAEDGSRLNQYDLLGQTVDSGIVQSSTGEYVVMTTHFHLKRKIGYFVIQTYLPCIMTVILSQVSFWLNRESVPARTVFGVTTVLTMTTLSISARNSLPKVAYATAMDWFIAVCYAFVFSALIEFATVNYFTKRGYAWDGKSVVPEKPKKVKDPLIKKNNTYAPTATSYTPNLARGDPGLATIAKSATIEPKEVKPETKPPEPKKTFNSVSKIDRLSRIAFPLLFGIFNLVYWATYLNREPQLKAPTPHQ
T1 sequence (P08220 26-474): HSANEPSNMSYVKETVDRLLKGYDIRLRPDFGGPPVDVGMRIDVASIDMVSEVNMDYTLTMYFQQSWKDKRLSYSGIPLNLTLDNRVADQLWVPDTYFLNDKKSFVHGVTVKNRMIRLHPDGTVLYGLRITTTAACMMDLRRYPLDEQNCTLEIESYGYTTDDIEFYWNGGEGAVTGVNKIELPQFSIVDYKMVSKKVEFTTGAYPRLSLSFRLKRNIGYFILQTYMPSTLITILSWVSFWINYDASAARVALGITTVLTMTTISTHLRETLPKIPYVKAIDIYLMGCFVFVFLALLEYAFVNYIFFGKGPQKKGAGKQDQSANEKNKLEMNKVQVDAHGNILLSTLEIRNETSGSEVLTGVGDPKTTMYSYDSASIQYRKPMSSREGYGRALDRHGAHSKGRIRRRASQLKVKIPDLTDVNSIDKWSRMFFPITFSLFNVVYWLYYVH
T1 sequence (P22300 40-475): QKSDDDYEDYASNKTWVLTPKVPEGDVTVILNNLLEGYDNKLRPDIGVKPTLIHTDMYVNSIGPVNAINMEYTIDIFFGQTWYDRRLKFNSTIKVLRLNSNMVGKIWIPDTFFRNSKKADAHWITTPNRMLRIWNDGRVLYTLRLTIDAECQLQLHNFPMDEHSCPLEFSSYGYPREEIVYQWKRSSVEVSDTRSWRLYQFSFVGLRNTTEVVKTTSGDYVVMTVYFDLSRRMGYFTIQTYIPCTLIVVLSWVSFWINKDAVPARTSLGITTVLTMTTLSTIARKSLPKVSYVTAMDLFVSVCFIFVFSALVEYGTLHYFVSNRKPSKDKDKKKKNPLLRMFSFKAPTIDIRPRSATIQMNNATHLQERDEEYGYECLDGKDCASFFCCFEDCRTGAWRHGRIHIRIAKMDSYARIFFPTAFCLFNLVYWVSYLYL
From the text: Studies carried out by the applicant have shown that xenon has virtually no effect on GABAA receptors.

[2] = test system: humans, monkeys and rats; test: MAC as free aqueous concentration, average of humans, monkeys and rats; type: in vivo; settings: 37° C.
Protocol: The gaseous concentration of xenon which prevents a response to a painful stimulus (i.e. MAC) appears to vary among species, being 71% atm in humans (Cullen SC et al, Anesthesiology 1969, 31:305-309), 98% atm in rhesus monkeys (Whitehurst S L et al, J. Neurosurg. Anesthesiol. 1994, 6:275-279) and 161% atm in rats (Koblin D D et al, Anesth. Analg. 1998, 87:419-424). When these values are converted to free aqueous concentrations at 37° C. (Franks N P et al, Br. J. Anaesth. 1993, 71:65-76; Franks N P et al, Anesthesiology, 1996, 84:716-720) using an Ostwald water/gas partition coefficient of 0.0887 (Weathersby P K et al, Undersea Biomed. Res. 1980, 7:277-296), the values obtained are 2.5 mM, 3.4 mM and 5.6 mM for humans, monkeys and rats respectively, with the average value being 3.8 mM. For the experiments described herein, performed at room temperature, the concentration of xenon present in the standard test solution was 3.4 mM. […] This is illustrated with representative traces in FIG. 2.

Compound: [Xe] [xenon]
- effect on currents activated by 3 μM GABA [1]: not significantly affected
- MAC as free aqueous concentration, average value [2]: 3.8 mM
